# Experimental data reported in patent publication US12121505B2, “Fap-activated therapeutic agents, and uses related thereto” (BACH BIOSCIENCES, LLC, priority 2014, dated 2024).
# Read-outs that look alike come from different tables or passages of the source.
# Legend:
# [1] = target: dipeptidyl peptidase IV (DPP IV) (Homo sapiens, UniProt P27487); experiment: Specificity of activation: 24 h digestion with DPP IV; type: biochemical; conditions: 100 μM prodrug, 37° C.
# Protocol: (§1) Total doxorubicin was measured for each assay.
# PREP = target: T1, PREP (Homo sapiens, UniProt P48147); experiment: Specificity of activation: 24 h digestion with PREP; type: biochemical; conditions: 100 μM prodrug, 37° C.
# T1 sequence (P48147 1-710): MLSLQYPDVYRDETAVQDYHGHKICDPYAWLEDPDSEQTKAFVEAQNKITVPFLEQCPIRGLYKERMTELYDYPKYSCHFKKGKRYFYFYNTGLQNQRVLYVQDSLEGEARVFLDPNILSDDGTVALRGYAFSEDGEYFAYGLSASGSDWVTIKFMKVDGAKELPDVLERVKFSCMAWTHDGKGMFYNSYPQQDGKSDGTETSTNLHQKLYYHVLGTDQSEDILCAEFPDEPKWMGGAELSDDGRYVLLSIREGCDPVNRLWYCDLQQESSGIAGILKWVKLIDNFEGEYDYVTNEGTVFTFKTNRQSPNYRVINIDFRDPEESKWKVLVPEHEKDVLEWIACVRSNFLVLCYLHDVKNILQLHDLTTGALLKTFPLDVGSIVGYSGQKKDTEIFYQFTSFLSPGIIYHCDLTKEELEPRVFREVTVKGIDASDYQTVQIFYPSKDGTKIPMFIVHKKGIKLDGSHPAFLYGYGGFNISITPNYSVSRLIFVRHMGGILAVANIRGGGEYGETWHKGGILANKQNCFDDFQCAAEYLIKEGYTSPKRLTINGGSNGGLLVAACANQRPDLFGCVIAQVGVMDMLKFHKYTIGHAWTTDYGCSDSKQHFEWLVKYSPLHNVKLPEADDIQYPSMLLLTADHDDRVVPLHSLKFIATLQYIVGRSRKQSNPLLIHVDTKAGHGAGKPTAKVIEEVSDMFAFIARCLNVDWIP
# Protocol: as §1
# HEK-Mock cells = experiment: CellTiter-Blue cell viability assay with HEK-Mock cells; type: cell-based; conditions: Homo sapiens
# MCF-7 = experiment: CellTiter-Blue cell viability assay, MCF-7; type: cell-based; conditions: 5061DOX assay 2, MCF-7, 72 hour
# HEK-mFAP cells = experiment: CellTiter-Blue cell viability assay with HEK-mFAP cells; type: cell-based, Human; conditions: for activation by FAP expressed by HEK-mFAP cells / effect of addition of the FAP inhibitor 5057 on activation: FIG. 15A, 15B
# OVCAR-3 = experiment: CellTiter-Blue cell viability assay, OVCAR-3; type: cell-based; conditions: 5061DOX assay 2, OVCAR-3, 72 hour
# SK-OV-3 = experiment: CellTiter-Blue cell viability assay, SK-OV-3; type: cell-based; conditions: 5061DOX assay 2, SK-OV-3, 72 hour
# [2] = Homo sapiens, read-out: EC50 (prodrug + 100 uM 5057)
# [3] = Homo sapiens, read-out: EC50 (prodrug alone)
# [4] = Homo sapiens, 72 h, MK-2206 / Akt inhibitor prodrugs, HEK-mFAP cells, 72 hour incubation, read-out: EC50 (prodrug alone)
# [5] = read-out: EC50 (doxorubicin alone)
# Sequence of dipeptidyl peptidase IV (DPP IV) (P27487 whole entry, species assumed): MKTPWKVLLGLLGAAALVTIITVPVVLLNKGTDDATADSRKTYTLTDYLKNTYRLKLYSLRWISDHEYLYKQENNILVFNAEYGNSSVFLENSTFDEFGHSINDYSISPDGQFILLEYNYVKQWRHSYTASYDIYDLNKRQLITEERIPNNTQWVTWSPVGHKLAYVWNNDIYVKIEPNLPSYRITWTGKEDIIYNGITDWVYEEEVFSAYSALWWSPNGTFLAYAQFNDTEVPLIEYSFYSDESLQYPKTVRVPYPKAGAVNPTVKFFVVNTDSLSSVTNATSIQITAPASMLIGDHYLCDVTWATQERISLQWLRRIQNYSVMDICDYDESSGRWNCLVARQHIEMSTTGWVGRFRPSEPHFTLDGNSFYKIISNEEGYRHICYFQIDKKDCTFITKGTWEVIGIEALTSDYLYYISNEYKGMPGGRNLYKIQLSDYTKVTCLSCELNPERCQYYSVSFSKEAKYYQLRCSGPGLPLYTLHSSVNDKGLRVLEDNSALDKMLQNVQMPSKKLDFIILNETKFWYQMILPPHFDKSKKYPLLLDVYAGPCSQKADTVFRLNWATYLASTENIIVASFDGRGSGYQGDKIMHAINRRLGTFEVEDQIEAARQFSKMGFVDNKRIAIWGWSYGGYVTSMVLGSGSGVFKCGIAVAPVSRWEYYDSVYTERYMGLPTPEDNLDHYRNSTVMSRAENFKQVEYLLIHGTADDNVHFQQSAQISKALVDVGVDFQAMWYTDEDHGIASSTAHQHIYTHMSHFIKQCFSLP
molecule,measurement,setting,value
COc1cccc2c1C(=O)c1c(O)c3c(c(O)c1C2=O)C[C@@](O)(C(=O)CO)C[C@@H]3OC1CC(NC(=O)[C@@H]2CCCN2C(=O)[C@@H](C)NC(=O)[C@H](CO)NC(=O)CCC(=O)O)C(O)C(C)O1 (stereo partly drawn) [Compound 3996DOX],doxorubicin released by DPP IV,[1],essentially none by PREP or DPP IV
same,doxorubicin released by PREP,PREP,essentially none by PREP or DPP IV
COc1cccc2c1C(=O)c1c(O)c3c(c(O)c1C2=O)C[C@@](O)(C(=O)CO)C[C@@H]3OC1CC(NC(=O)[C@@H]2CCCN2C(=O)[C@@H](C)NC(=O)c2ccnc3cccc(Br)c23)C(O)C(C)O1 (stereo partly drawn) [Compound 5061DOX],EC50,"HEK-Mock cells; 72 h, 5061DOX assay 1, HEK-Mock, 72 hour, read-out: EC50 (prodrug + 25 nM FAP)",0.28 µM
same,EC50,"HEK-Mock cells; 72 h, 5061DOX assay 1, HEK-Mock, 72 hour, read-out: EC50 (prodrug + 50 nM PREP)",> 100 µM
same,EC50,"HEK-Mock cells; 72 h, 5061DOX assay 1, HEK-Mock, 72 hour, read-out: EC50 (prodrug + 100 uM 5057)",> 100 µM
same,EC50,"HEK-Mock cells; 72 h, 5061DOX assay 1, HEK-Mock, 72 hour, read-out: EC50 (prodrug alone)",> 100 µM
same,EC50,"HEK-Mock cells; 72 h, 5061DOX assay 2, HEK-Mock, 72 hour, read-out: EC50 (prodrug + 25 nM FAP)",0.25 µM
same,EC50,"HEK-Mock cells; 72 h, 5061DOX assay 2, HEK-Mock, 72 hour, read-out: EC50 (prodrug alone)",> 100 µM
same,EC50,"MCF-7; Homo sapiens, MCF7, read-out: EC50 (prodrug + 25 nM FAP)",> 100 µM
same,EC50,"MCF-7; Homo sapiens, MCF7, read-out: EC50 (prodrug + 100 uM 5057)",> 100 µM
same,EC50,"MCF-7; Homo sapiens, MCF7, read-out: EC50 (prodrug alone)",> 100 µM
same,EC50,"HEK-mFAP cells; 5061DOX assay 1, HEK-mFAP, 72 hour, read-out: EC50 (prodrug alone)",> 100 µM
same,EC50,"HEK-mFAP cells; 5061DOX assay 2, HEK-mFAP, 72 hour, read-out: EC50 (prodrug + 100 uM 5057)",> 100 µM
same,EC50,"HEK-mFAP cells; Homo sapiens, 5061DOX assay 1, HEK-mFAP, 72 hour, read-out: EC50 (prodrug + 100 uM 5057)",> 100 µM
same,EC50,"HEK-mFAP cells; Homo sapiens, 5061DOX assay 2, HEK-mFAP, 72 hour, read-out: EC50 (prodrug alone)",> 100 µM
same,EC50,OVCAR-3; [2],> 100 µM
same,EC50,"OVCAR-3; Homo sapiens, read-out: EC50 (prodrug = 25 nM FAP)",1.5 µM
same,EC50,OVCAR-3; [3],> 100 µM
same,EC50,"SK-OV-3; Homo sapiens, read-out: EC50 (prodrug + 25 nM FAP)",0.9 µM
same,EC50,SK-OV-3; [2],> 100 µM
same,EC50,SK-OV-3; [3],> 100 µM
COc1cccc2c1C(=O)c1c(O)c3c(c(O)c1C2=O)C[C@@](O)(C(=O)CO)C[C@@H]3OC1CC(NC(=O)[C@@H]2CC(F)(F)CN2C(=O)[C@@H](C)NC(=O)c2ccnc3ccccc23)C(O)C(C)O1 (stereo partly drawn) [Compound 5107DOX],EC50,"HEK-mFAP cells; Homo sapiens, 5107DOX assay, HEK-mFAP, 72 hour, read-out: EC50 (prodrug + 100 uM 5057-2)",> 100 µM
same,EC50,"HEK-mFAP cells; Homo sapiens, 5107DOX assay, HEK-mFAP, 72 hour, read-out: EC50 (prodrug alone)",0.94 µM
C[C@@H](NC(=O)c1ccncc1)C(=O)N1CCC[C@H]1C(=O)Nc1ccc(COC(=O)NC2(c3ccc(-c4nc5ccn6c(=O)[nH]nc6c5cc4-c4ccccc4)cc3)CCC2)cc1 [Compound 5157],EC50,"HEK-Mock cells; 5157 assay, HEK-Mock, read-out: EC50 (prodrug + 100 uM 3099-15)",> 2.5 µM
same,EC50,"HEK-Mock cells; 5157 assay, HEK-Mock, read-out: EC50 (prodrug alone)",> 2.5 µM
same,EC50,"HEK-mFAP cells; Homo sapiens, 5157 assay, HEK-mFAP, read-out: EC50 (prodrug + 100 uM 3099-15)",> 2.5 µM
same,EC50,"HEK-mFAP cells; Homo sapiens, 5157 assay, HEK-mFAP, read-out: EC50 (prodrug alone)",2.9 µM
O=C(NC1(c2ccc(-c3nc4ccn5c(=O)[nH]nc5c4cc3-c3ccccc3)cc2)CCC1)OCc1ccc(NC(=O)[C@@H]2CC(F)(F)CN2C(=O)CNC(=O)c2ccnc3ccccc23)cc1 [Compound 5173],activation by FAP expressed by HEK-mFAP cells,HEK-mFAP cells,appears to be activated by the FAP expressed by the HEK-mFAP cells
same,effect of addition of the FAP inhibitor 5057 on activation,HEK-mFAP cells,blocks this activation
same,EC50,HEK-mFAP cells; [4],> 2.5 µM
C[C@@H](NC(=O)c1ccnc2ccccc12)C(=O)N1CC(F)(F)C[C@H]1C(=O)Nc1ccc(COC(=O)NC2(c3ccc(-c4nc5ccn6c(=O)[nH]nc6c5cc4-c4ccccc4)cc3)CCC2)cc1 [Compound 5174],activation by FAP expressed by HEK-mFAP cells,HEK-mFAP cells,appears to be activated by the FAP expressed by the HEK-mFAP cells
same,effect of addition of the FAP inhibitor 5057 on activation,HEK-mFAP cells,blocks this activation
same,EC50,HEK-mFAP cells; [4],4.6 µM
Cn1ncc(Cl)c1-c1cc(C(=O)N[C@H](CNC(=O)[C@@H]2CC(F)(F)CN2C(=O)CNC(=O)c2ccnc3ccccc23)Cc2cccc(F)c2)sc1Cl [Compound 5184],EC50,"HEK-mFAP cells; Homo sapiens, 72 h, Akt inhibitor prodrugs, HEK-mFAP cells, 72 hrs, read-out: EC50 (prodrug alone)",0.93 µM
CCn1c(-c2nonc2N)nc2c(C#CC(C)(C)O)ncc(OC[C@H]3CCCN(C(=O)[C@@H]4CC(F)(F)CN4C(=O)CNC(=O)c4ccnc5ccccc45)C3)c21 [Compound 5188],EC50,HEK-mFAP cells; [4],> 25 µM
O=C(NC1(C(=O)N[C@@H](CCO)c2ccc(Cl)cc2)CCN(c2ncnc3[nH]ccc23)CC1)OCc1ccc(NC(=O)[C@@H]2CC(F)(F)CN2C(=O)CNC(=O)c2ccnc3ccccc23)cc1 [Compound 5189],EC50,"HEK-mFAP cells; Homo sapiens, 72 h, Akt inhibitor prodrugs, HEK-mFAP cells, 72 hour, read-out: EC50 (prodrug + 100 uM 5057-2)",5.8 µM
same,EC50,HEK-mFAP cells; [4],3 µM
NNc1ccc(C(=O)NCC(=O)N2CC(F)(F)C[C@H]2C(=O)Nc2ccc(COC(=O)NC3(c4ccc(-c5nc6ccn7c(=O)[nH]nc7c6cc5-c5ccccc5)cc4)CCC3)cc2)cn1 [Compound 5192],EC50,HEK-mFAP cells; [4],> 3 µM
NCC(=O)NNc1ccc(C(=O)NCC(=O)N2CC(F)(F)C[C@H]2C(=O)Nc2ccc(COC(=O)NC3(c4ccc(-c5nc6ccn7c(=O)[nH]nc7c6cc5-c5ccccc5)cc4)CCC3)cc2)cn1 [Compound 5193],EC50,HEK-mFAP cells; [4],2.6 µM
"Cn1ncc(Cl)c1-c1cc(C(=O)N[C@H](CN)Cc2cccc(F)c2)sc1Cl [GSK2 110183, reference compound]",EC50,"HEK-mFAP cells; HEK-mFAP cells, 72 hrs, read-out: EC50 (GSK2 110183)",0.49 µM
"CCn1c(-c2nonc2N)nc2c(C#CC(C)(C)O)ncc(OC[C@H]3CCCNC3)c21 [GSK690693, reference compound]",EC50,"HEK-mFAP cells; Homo sapiens, 72 h, HEK-mFAP cells, 72 hour, read-out: EC50 (GSK690693)",15 µM
"NC1(c2ccc(-c3nc4ccn5c(=O)[nH]nc5c4cc3-c3ccccc3)cc2)CCC1 [MK-2206, reference compound]",EC50,"HEK-Mock cells; 5157 assay, HEK-Mock, read-out: EC50 (MK-2206 alone)",6.7 µM
same,EC50,"HEK-mFAP cells; Homo sapiens, 5157 assay, HEK-mFAP, read-out: EC50 (MK-2206 alone)",5.3 µM
same,EC50,"HEK-mFAP cells; Homo sapiens, 72 h, HEK-mFAP cells, 72 hrs, read-out: EC50 (MK-2206)",9.1 µM
"COc1cccc2c1C(=O)c1c(O)c3c(c(O)c1C2=O)C[C@@](O)(C(=O)CO)C[C@@H]3O[C@H]1C[C@H](N)[C@H](O)[C@H](C)O1 [doxorubicin, reference compound]",EC50,MCF-7; [5],54 µM
same,EC50,OVCAR-3; [5],1.7 µM
same,EC50,SK-OV-3; [5],0.44 µM
AZD5363 [reference compound],EC50,"HEK-mFAP cells; HEK-mFAP cells, 72 hour, read-out: EC50 (AZD5363)",2.5 µM
